What was measured:
[1] = target: T674I PDGFRα (Homo sapiens, UniProt P16234, T674I); assay: HotSpot radiometric kinase assay, recombinant T674I PDGFRα; assay type: biochemical; conditions: for inhibition of T674I PDGFRα: 500 nM screening concentration, 10 μM ATP
[2] = test system: mutants of the RET tyrosine kinase; assay: HotSpot kinase assay, RET mutants; assay type: biochemical; conditions: single-dose screen verified in dose-response
[3] = test system: Ba/F3 cells expressing T674I FIP1L1-PDGFRα; assay: cells; conditions: Mus musculus, BaF3, 24 h, read-out: IC50 cell growth/viability
[4] = test system: LRRK2 mutants; assay: HotSpot kinase assay, LRRK2 mutants; assay type: biochemical; conditions: single-dose screen verified in dose-response
[5] = test system: Ba/F3 cells expressing WT FIP1L1-PDGFRα; assay: cells; conditions: Mus musculus, BaF3, 24 h, read-out: IC50 cell growth/viability
[6] = target: BLK (Homo sapiens, UniProt P51451); assay: Wild-type kinase panel, BLK; assay type: biochemical; conditions: single-dose screen
[7] = target: BTK (Homo sapiens, UniProt Q06187); assay: Wild-type kinase panel, BTK; assay type: biochemical; conditions: single-dose screen
[8] = target: ERBB4 (Homo sapiens, UniProt Q15303); assay: Wild-type kinase panel, ERBB4; assay type: biochemical; conditions: single-dose screen
[9] = target: JAK3 (Homo sapiens, UniProt P52333); assay: Wild-type kinase panel, JAK3; assay type: biochemical; conditions: single-dose screen
[10] = target: TXK (Homo sapiens, UniProt P42681); assay: Wild-type kinase panel, TXK; assay type: biochemical; conditions: single-dose screen
[11] = target: CLK3 (Homo sapiens, UniProt P49761); assay: Wild-type kinase panel, CLK3; assay type: biochemical; conditions: single-dose screen
[12] = target: RIPK2 (Homo sapiens, UniProt O43353); assay: Wild-type kinase panel, RIPK2; assay type: biochemical; conditions: single-dose screen
[13] = test system: T790M EGFR mutants (T790M, T790M/L858R, d746-750/T790M); conditions: dose-response
[14] = target: ERBB2 (Homo sapiens, UniProt P04626); assay: Wild-type kinase panel, ERBB2; assay type: biochemical; conditions: single-dose screen
[15] = target: C-SRC (Homo sapiens, UniProt P12931); assay: Wild-type kinase panel, C-SRC; assay type: biochemical; conditions: single-dose screen
[16] = target: EPHA6 (Homo sapiens, UniProt Q9UF33); assay: Wild-type kinase panel, EPHA6; assay type: biochemical; conditions: single-dose screen
[17] = target: EPHB4 (Homo sapiens, UniProt P54760); assay: Wild-type kinase panel, EPHB4; assay type: biochemical; conditions: single-dose screen
[18] = target: FGR (Homo sapiens, UniProt P09769); assay: Wild-type kinase panel, FGR; assay type: biochemical; conditions: single-dose screen
[19] = target: HCK (Homo sapiens, UniProt P08631); assay: Wild-type kinase panel, HCK; assay type: biochemical; conditions: single-dose screen
[20] = target: LCK (Homo sapiens, UniProt P06239); assay: Wild-type kinase panel, LCK; assay type: biochemical; conditions: single-dose screen
[21] = target: MNK1 (Homo sapiens, UniProt Q9BUB5); assay: Wild-type kinase panel, MNK1; assay type: biochemical; conditions: single-dose screen
[22] = target: L1196M ALK (Homo sapiens, UniProt Q9UM73, L1196M); assay: HotSpot kinase assay, L1196M ALK; assay type: biochemical; conditions: single-dose screen verified in dose-response

T674I PDGFRα, sequence (P16234 24-1089 T674I): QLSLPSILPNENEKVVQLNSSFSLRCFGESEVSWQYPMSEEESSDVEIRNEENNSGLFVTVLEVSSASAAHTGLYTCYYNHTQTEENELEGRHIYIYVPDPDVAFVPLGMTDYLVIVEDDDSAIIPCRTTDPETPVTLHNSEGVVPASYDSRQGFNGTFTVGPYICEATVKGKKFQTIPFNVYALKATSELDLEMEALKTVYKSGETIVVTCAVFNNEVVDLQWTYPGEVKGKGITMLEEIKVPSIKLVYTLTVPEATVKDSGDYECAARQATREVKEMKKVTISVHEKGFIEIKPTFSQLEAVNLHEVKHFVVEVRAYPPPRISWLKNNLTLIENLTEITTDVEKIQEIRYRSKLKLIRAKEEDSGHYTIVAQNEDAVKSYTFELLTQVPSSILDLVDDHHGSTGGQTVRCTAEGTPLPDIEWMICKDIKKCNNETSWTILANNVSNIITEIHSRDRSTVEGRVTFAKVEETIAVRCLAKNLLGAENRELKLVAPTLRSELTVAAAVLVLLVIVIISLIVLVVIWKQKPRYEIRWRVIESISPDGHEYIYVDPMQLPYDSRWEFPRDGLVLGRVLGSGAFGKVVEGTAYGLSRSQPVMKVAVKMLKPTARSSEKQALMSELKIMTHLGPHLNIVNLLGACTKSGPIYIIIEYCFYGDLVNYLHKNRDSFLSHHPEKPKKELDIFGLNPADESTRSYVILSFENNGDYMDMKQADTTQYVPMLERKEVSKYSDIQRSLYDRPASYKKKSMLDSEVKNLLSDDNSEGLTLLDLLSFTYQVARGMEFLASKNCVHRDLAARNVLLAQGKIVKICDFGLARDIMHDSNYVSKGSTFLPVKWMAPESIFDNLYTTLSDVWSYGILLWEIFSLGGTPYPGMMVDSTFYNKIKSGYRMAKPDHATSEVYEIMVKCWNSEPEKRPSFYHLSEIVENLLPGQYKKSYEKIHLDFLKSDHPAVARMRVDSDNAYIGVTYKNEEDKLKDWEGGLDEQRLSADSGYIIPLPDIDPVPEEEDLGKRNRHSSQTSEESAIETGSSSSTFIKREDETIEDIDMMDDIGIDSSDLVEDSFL
ERBB4, sequence (Q15303 26-1308): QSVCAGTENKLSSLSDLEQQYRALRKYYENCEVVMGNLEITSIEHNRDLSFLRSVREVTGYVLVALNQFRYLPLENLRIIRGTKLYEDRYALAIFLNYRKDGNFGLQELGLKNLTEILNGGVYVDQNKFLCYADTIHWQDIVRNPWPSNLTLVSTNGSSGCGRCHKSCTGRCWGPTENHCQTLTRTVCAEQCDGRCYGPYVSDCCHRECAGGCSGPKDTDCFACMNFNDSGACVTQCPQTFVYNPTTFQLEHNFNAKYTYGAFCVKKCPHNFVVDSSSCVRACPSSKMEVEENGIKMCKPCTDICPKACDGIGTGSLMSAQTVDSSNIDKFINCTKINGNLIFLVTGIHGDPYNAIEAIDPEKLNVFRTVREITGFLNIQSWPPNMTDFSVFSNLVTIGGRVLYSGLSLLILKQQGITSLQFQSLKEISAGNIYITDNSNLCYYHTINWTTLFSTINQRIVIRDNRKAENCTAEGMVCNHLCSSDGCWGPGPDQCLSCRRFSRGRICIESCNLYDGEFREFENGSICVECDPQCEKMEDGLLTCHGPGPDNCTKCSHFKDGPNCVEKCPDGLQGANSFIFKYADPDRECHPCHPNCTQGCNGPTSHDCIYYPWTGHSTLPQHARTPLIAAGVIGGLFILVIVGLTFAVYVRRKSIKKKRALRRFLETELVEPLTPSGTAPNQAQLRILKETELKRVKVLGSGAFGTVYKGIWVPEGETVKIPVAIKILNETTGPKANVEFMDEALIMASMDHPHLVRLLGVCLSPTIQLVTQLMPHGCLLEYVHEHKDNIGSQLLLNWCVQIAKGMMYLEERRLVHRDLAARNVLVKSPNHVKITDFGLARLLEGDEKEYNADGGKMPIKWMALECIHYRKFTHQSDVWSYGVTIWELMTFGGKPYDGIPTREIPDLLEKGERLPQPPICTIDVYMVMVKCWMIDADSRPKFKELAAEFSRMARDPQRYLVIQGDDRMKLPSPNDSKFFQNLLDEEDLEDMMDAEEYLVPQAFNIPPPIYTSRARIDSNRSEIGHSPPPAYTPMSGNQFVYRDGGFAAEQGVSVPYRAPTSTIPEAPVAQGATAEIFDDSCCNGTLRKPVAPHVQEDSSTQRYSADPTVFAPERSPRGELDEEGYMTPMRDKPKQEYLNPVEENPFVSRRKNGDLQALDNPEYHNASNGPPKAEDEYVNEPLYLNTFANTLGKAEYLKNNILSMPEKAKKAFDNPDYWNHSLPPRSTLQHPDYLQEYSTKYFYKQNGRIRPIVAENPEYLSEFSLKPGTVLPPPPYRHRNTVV
BTK, sequence (Q06187 whole entry): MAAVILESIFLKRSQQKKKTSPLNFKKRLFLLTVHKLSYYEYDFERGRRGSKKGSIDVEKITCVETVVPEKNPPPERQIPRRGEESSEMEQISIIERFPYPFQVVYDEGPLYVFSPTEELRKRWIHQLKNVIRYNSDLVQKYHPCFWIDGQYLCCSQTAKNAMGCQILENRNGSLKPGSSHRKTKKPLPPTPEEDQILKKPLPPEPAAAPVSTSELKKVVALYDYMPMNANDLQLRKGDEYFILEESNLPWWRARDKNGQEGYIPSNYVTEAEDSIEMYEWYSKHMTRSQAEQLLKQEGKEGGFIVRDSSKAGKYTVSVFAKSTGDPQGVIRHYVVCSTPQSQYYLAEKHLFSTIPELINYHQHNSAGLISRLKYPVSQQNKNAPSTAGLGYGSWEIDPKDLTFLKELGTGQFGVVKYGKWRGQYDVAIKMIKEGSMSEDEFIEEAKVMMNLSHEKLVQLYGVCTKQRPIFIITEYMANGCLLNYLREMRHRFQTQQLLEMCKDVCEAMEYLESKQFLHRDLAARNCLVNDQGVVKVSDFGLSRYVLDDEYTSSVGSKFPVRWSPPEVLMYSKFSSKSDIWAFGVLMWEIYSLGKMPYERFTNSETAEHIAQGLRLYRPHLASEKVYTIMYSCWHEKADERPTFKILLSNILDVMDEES
CLK3, sequence (P49761 whole entry): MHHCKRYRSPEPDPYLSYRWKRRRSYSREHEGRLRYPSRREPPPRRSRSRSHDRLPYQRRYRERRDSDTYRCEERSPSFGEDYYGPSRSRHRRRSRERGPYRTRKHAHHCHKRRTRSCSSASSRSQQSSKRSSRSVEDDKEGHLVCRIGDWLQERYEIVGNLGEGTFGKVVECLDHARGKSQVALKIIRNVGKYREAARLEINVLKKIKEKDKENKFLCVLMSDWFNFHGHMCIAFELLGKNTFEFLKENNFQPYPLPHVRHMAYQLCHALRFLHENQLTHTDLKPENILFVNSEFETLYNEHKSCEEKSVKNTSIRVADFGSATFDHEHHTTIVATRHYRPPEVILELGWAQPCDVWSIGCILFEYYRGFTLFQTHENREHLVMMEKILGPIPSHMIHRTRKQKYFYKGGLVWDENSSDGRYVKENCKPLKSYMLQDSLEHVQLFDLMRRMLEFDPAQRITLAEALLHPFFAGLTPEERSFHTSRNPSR
JAK3, sequence (P52333 whole entry): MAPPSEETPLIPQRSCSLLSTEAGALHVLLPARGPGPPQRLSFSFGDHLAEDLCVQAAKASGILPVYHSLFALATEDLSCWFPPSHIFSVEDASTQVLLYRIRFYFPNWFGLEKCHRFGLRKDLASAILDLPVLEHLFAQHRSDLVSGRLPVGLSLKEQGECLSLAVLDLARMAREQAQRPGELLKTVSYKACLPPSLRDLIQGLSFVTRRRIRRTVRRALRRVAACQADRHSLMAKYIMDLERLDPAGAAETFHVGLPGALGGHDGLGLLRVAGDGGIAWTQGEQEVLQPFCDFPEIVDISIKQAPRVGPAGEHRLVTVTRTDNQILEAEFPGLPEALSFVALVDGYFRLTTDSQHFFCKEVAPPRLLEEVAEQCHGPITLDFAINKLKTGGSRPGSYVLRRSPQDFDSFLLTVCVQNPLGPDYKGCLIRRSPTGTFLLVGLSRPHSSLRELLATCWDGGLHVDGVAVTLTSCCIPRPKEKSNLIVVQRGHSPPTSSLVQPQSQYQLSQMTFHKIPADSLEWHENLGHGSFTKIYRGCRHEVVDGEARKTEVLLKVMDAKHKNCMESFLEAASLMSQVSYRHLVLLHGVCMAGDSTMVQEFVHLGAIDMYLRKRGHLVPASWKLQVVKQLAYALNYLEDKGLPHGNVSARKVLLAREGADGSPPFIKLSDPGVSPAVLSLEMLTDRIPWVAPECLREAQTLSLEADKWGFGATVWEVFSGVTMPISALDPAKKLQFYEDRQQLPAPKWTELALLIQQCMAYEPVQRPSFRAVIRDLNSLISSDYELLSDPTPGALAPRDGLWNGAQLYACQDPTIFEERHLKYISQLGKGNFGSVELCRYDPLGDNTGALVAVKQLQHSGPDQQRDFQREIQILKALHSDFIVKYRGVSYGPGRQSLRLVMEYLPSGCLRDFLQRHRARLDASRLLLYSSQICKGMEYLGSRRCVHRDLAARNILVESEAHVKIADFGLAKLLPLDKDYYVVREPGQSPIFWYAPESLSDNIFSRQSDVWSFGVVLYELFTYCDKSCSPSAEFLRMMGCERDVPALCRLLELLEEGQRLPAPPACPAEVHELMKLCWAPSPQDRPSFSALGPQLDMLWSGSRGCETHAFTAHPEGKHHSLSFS
MNK1, sequence (Q9BUB5 whole entry): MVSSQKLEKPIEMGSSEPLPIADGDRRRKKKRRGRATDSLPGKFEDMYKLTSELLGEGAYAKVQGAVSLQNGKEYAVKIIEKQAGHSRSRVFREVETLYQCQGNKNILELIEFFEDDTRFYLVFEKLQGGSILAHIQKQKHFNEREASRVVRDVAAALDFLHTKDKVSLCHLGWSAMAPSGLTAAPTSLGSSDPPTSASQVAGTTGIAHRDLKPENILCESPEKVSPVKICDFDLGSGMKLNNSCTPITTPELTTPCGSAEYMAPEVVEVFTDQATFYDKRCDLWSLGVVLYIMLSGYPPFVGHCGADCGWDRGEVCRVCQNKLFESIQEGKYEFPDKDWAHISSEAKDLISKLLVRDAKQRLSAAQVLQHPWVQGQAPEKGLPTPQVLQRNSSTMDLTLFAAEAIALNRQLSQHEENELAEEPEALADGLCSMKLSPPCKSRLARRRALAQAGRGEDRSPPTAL

COc1cc2ncnc(Nc3ccc(O)cc3)c2cc1OC [compound 2]
fold less potent than compound 3 against T674I PDGFRα ([1]; IC50 comparison): ~ 2 fold

Cc1cc(Nc2cc(N3CCN(C)CC3)nc(Sc3ccc(NC(=O)C4CC4)cc3)n2)[nH]n1 [tozasertib]
inhibition of RET mutants (in words) [2]: can inhibit

COc1cc2ncnc(Nc3cccc(Br)c3)c2cc1OC [compound 6]
fold more potent than compound 7 against T674I PDGFRα ([1]; IC50 comparison): approximately 1.5 fold

Cc1ccc(Nc2nccc(N(C)c3ccc4c(C)n(C)nc4c3)n2)cc1S(N)(=O)=O [pazopanib]
inhibition of T674I PDGFRα [1]: > 90%
IC50 [3]: 3170 nM

Flt-3 Inhibitor
inhibition of LRRK2 mutants (in words) [4]: inhibit

C#Cc1cccc(Nc2ncnc3cc(OCCOC)c(OCCOC)cc23)c1 [erlotinib]
inhibition of T674I PDGFRα [1]: > 90%
IC50 [5]: 14500 nM
IC50 [3]: 1640 nM

CNC(=O)c1cc(Oc2ccc(NC(=O)Nc3ccc(Cl)c(C(F)(F)F)c3)cc2)ccn1 [sorafenib]
inhibition of T674I PDGFRα [1]: > 90%
IC50 [3]: 144 nM

COc1cc2ncnc(Nc3cccc(Cl)c3)c2cc1OC [compound 5]
fold more potent than compound 7 against T674I PDGFRα ([1]; IC50 comparison): approximately 1.5 fold

EGFR/ErbB2/ErbB4 Inhibitor
inhibition of BLK [6]: more than 50%
inhibition of BTK [7]: more than 50%
inhibition of ERBB4 [8]: more than 50%
inhibition of JAK3 [9]: more than 50%
inhibition of TXK [10]: more than 50%
inhibition of CLK3 [11]: more than 50%
inhibition of RIPK2 [12]: more than 50%
apparent IC50 against all T790M EGFR kinases (in words) [13]: low nanomolar

CCN(CC)CCNC(=O)c1c(C)[nH]c(/C=C2\C(=O)Nc3ccc(F)cc32)c1C [sunitinib]
inhibition of T674I PDGFRα [1]: > 90%
IC50 [3]: 45.2 nM

COc1cc2ncnc(Nc3cccc(O)c3)c2cc1OC [compound 1]
fold more potent than compound 2 against T674I PDGFRα ([1]; IC50 comparison, meta vs para substituent): 2 fold

COc1cc2ncnc(Nc3ccc(Oc4ccccc4)cc3)c2cc1OC [compound 3]
potency relative to compound 4 against T674I PDGFRα ([1]; IC50 comparison): several-fold more potent

CN(C)C/C=C/C(=O)Nc1cc2c(Nc3ccc(F)c(Cl)c3)ncnc2cc1O[C@H]1CCOC1 [afatinib]
inhibition of BTK [7]: more than 50%
inhibition of ERBB2 [14]: more than 50%
inhibition of ERBB4 [8]: more than 50%
inhibition of C-SRC [15]: more than 50%
inhibition of EPHA6 [16]: more than 50%
inhibition of EPHB4 [17]: more than 50%
inhibition of FGR [18]: more than 50%
inhibition of HCK [19]: more than 50%
inhibition of LCK [20]: more than 50%
inhibition of MNK1 [21]: more than 50%

bosutinib isomer
inhibition of crizotinib-resistant L1196M ALK (in words) [22]: inhibitor

Jak3 Inhibitor II
inhibition of LRRK2 mutants (in words) [4]: inhibit
